Consider four compounds from article PMC9401864, “Cell‐Free Protein Synthesis for the Screening of Novel Azoreductases and Their Preferred Electron Donor” (Chembiochem, 2022).

SMILES strings stand for the structures.

Common to all, as to type: biochemical
Assay [1] has as its target T1, PaerAzoR (Pseudomonas aeruginosa, UniProt Q9I5F3).
T1 construct: gene azoR1; codon-optimised gene in pET-24a(+); cell-free synthesis (PUREfrex2.0), unpurified
T1 sequence (Q9I5F3 1-212): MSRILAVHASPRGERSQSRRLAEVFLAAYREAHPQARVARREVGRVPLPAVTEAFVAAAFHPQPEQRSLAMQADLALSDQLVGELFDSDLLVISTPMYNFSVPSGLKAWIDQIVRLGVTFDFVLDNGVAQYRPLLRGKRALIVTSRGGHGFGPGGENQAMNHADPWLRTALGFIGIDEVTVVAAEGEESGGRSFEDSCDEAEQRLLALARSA
In words: methyl red degradation at […] nm with BNAH as electron donor, reconstituted cell-free (PURE) mix. The following applies: 30 uM methyl red; 150 uM BNAH; 50 uM FMN; 100 mM sodium phosphate pH 6; 25 °C.

Assay [2] deals with T2, RferAzoR (Rhodoferax ferrireducens, UniProt Q220J4).
T2 construct: gene azoR; codon-optimised gene in pET-24a(+); cell-free synthesis (PUREfrex2.0), unpurified
T2 sequence (Q220J4 1-203): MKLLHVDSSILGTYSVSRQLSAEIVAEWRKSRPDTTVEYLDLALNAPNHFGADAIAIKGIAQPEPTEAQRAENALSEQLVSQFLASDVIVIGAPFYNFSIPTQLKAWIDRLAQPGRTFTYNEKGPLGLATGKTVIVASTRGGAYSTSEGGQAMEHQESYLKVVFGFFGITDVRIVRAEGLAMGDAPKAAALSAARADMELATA
Description: Brilliant Black degradation at […] nm, reconstituted cell-free (PURE) mix. Particulars: 150 uM NADH; 50 uM FMN; 100 mM sodium phosphate pH 6; 25 °C; 30 uM dye.

Assay [3] concerns the target T3, RopaAzoR (Rhodococcus opacus, UniProt A0A1B1KJ01).
T3 construct: gene azoR; cell-free synthesis (PUREfrex2.0), unpurified
T3 sequence (A0A1B1KJ01 1-214): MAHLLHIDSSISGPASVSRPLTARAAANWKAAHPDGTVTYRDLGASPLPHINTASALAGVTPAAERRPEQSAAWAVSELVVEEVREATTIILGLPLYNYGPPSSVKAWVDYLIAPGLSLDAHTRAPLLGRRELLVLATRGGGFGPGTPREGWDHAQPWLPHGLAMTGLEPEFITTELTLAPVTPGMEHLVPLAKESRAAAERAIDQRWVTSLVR
The description is as above. The following applies: 150 uM NADH; 50 uM FMN; 100 mM sodium phosphate pH 6; 25 °C; 30 uM dye.

The target in assay [4] is T4, StypAzoR (Salmonella enterica, UniProt P63462).
T4 construct: gene azoR; codon-optimised gene in pET-24a(+); cell-free synthesis (PUREfrex2.0), unpurified
T4 sequence (P63462 2-201): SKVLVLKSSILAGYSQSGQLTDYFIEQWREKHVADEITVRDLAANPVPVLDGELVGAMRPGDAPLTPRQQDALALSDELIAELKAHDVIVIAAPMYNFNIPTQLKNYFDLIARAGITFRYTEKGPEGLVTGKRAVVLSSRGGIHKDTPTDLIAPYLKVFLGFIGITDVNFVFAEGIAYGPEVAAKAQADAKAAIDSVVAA
Described as above. The following applies: 150 uM NADH; 50 uM FMN; 100 mM sodium phosphate pH 6; 25 °C; 30 uM dye.

Assay [5] concerns the target T5, TvarAzoR (Trichormus variabilis, UniProt Q3M1N6).
T5 construct: gene azoR1; codon-optimised gene in pET-24a(+); cell-free synthesis (PUREfrex2.0), unpurified
T5 sequence (Q3M1N6 1-207): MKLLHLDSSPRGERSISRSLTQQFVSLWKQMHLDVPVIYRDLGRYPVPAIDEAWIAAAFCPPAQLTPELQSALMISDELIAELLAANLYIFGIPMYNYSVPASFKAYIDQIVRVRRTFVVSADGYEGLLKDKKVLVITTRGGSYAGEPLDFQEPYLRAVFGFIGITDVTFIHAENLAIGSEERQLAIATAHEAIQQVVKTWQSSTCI
The description is as above. Particulars: 150 uM NADH; 50 uM FMN; 100 mM sodium phosphate pH 6; 25 °C; 30 uM dye.

In assay [6] the target is T6, EfaeAzoR (Enterococcus faecalis, UniProt Q831B2).
T6 construct: gene azoR; codon-optimised gene in pET-24a(+); cell-free synthesis (PUREfrex2.0), unpurified
T6 sequence (Q831B2 whole entry): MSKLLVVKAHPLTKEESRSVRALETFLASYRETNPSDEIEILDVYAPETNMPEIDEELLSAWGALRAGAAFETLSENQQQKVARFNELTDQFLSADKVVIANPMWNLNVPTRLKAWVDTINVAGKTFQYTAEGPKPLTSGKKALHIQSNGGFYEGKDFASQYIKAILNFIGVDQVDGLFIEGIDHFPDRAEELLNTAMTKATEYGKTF
Description: methyl red degradation at […] nm with NADH as electron donor, reconstituted cell-free (PURE) mix. Particulars: 30 uM methyl red; 150 uM NADH; 50 uM FMN; 100 mM sodium phosphate pH 6; 25 °C.

Assay [7] has as its target T6, EfaeAzoR. Description: methyl red degradation at […] nm, reconstituted cell-free (PURE) mix. Particulars: 150 uM NADH, NADPH or BNAH; 50 uM FMN; 100 mM sodium phosphate pH 6; 25 °C; 30 uM dye.
In assay [8] the target is T1, PaerAzoR. The description is as above. Particulars: 150 uM BNAH; 50 uM FMN; 100 mM sodium phosphate pH 6; 25 °C; 30 uM dye.
The target in assay [9] is T2, RferAzoR. The description is as above. Particulars: 150 uM NADH, NADPH or BNAH; 50 uM FMN; 100 mM sodium phosphate pH 6; 25 °C; 30 uM dye.
Assay [10] deals with T3, RopaAzoR. Described as above. Particulars: 150 uM NADH; 50 uM FMN; 100 mM sodium phosphate pH 6; 25 °C; 30 uM dye.
The target of assay [11] is T4, StypAzoR. The assay is described as above. The following applies: 150 uM NADH, NADPH or BNAH; 50 uM FMN; 100 mM sodium phosphate pH 6; 25 °C; 30 uM dye.
The target in assay [12] is T5, TvarAzoR. Described as above. The following applies: 150 uM NADH, NADPH or BNAH; 50 uM FMN; 100 mM sodium phosphate pH 6; 25 °C; 30 uM dye.

As to `NC(=O)C1=CN(Cc2ccccc2)C=CC1` [BNAH, 1‐benzyl‐1,4‐dihydronicotinamide], the “methyl red degradation at 430 nm with BNAH as electron donor, reconstituted cell” value at PaerAzoR [1] is listed as “PaerAzoR catalyzed the degradation of methyl red using BNAH as co‐substrate”.

`CC(=O)Nc1ccc(S(=O)(=O)O)c2cc(S(=O)(=O)O)c(N=Nc3ccc(N=Nc4ccc(S(=O)(=O)O)cc4)c4ccc(S(=O)(=O)O)cc34)c(O)c12` [Brilliant Black]: the “Brilliant Black degradation at 570 nm, reconstituted cell-free (PURE) mix” value was “All five enzymes and RopaAzoR were able to degrade BB” at RferAzoR [2]; “All five enzymes and RopaAzoR were able to degrade BB” at RopaAzoR [3]; “All five enzymes and RopaAzoR were able to degrade BB” at StypAzoR [4]; “All five enzymes and RopaAzoR were able to degrade BB” on TvarAzoR [5].

As for `NC(=O)C1=CN([C@@H]2O[C@H](COP(=O)(O)OP(=O)(O)OC[C@H]3O[C@@H](n4cnc5c(N)ncnc54)[C@H](O)[C@@H]3O)[C@@H](O)[C@H]2O)C=CC1` [NADH], at EfaeAzoR [6], the “methyl red degradation at 430 nm with NADH as electron donor, reconstituted cell” value was “EfaeAzoR seems to have a strong preference for NADH”.

For the compound `CN(C)c1ccc(/N=N/c2ccccc2C(=O)O)cc1` [methyl red], the “methyl red degradation at 430 nm, reconstituted cell-free (PURE) mix” value was “Noteworthy are the very high activities of StypAzoR and EfaeAzoR” on EfaeAzoR [7]; “PaerAzoR catalyzed the degradation of methyl red using BNAH as co‐substrate” on PaerAzoR [8]; “all undescribed enzymes catalyzed the degradation of methyl red” on RferAzoR [9]; “active RopaAzoR was synthesized, and substrate degradation was detected in the activity assay” on RopaAzoR [10]; “all undescribed enzymes catalyzed the degradation of methyl red” on StypAzoR [11]; “all undescribed enzymes catalyzed the degradation of methyl red” at TvarAzoR [12].
